Test results as given in US12215133B2 (BrightGene Bio-Medical Technology Co., Ltd., priority 2021, dated 2025).
Marks after values point to notes of the source that are not given here.

Test system: db/db mice
Assay: Inhibitory effect of BG128 on hyperglycemia in db/db mice (Experimental Example 3)
Assay type: in vivo
Settings: for Insulin in serum: 3 days after the last administration; for Insulin in serum / Fasting blood glucose: n = 11; for non-fasting blood glucose after the first administration: FIG. 11
[1] = 0.05 mg/kg s.c. once every three days, anticoagulated whole blood, end of experiment, Mean ± SEM

CNC(CCCCNC(=O)COCCOCCOCCNC(=O)COCCOCCOCCNC(=O)CCC(NC(=O)CC(=O)O)C(=O)O)C(N)=O (stereo not drawn) [BG128]
Insulin in serum (0.05 mg/kg s.c. once every three days, Mean ± SD): 37649.0 ± 3597.0ª nIU/mL
Fasting blood glucose (0.05 mg/kg s.c. once every three days, Day 0 (before administration, baseline), Mean ± SD): 23.18 ± 1.15 mmol/L
Fasting blood glucose (0.05 mg/kg s.c. once every three days, Day 7, Mean ± SD): 21.68 ± 1.77^b mmol/L
Fasting blood glucose (0.05 mg/kg s.c. once every three days, Day 13, Mean ± SD): 21.68 ± 1.11 mmol/L
Fasting blood glucose (0.05 mg/kg s.c. once every three days, Day 19, Mean ± SD): 24.30 ± 1.41^c mmol/L
Fasting blood glucose (0.05 mg/kg s.c. once every three days, Day 25, Mean ± SD): 18.32 ± 1.37^c mmol/L
Fasting blood glucose (0.05 mg/kg s.c. once every three days, Day 31, Mean ± SD): 20.15 ± 1.91^c mmol/L
HbA1C [1]: 5.18 ± 0.23
HbA1C% [1]: 4.07 ± 0.13ª %
Insulin in serum (0.15 mg/kg s.c. once every three days, Mean ± SD): 30897.0 ± 5634.0^a nIU/mL
Fasting blood glucose (0.15 mg/kg s.c. once every three days, Day 0 (before administration, baseline), Mean ± SD): 23.17 ± 1.19 mmol/L
Fasting blood glucose (0.15 mg/kg s.c. once every three days, Day 7, Mean ± SD): 22.78 ± 1.11^a mmol/L
Fasting blood glucose (0.15 mg/kg s.c. once every three days, Day 13, Mean ± SD): 21.58 ± 1.13 mmol/L
Fasting blood glucose (0.15 mg/kg s.c. once every three days, Day 19, Mean ± SD): 26.14 ± 1.05^b mmol/L
Fasting blood glucose (0.15 mg/kg s.c. once every three days, Day 25, Mean ± SD): 15.70 ± 1.50^c mmol/L
Fasting blood glucose (0.15 mg/kg s.c. once every three days, Day 31, Mean ± SD): 20.38 ± 1.87^c mmol/L
HbA1C% (0.15 mg/kg s.c. once every three days, anticoagulated whole blood, end of experiment, Mean ± SEM): 4.04 ± 0.14ª %
Insulin in serum (0.5 mg/kg s.c. once every three days, Mean ± SD): 32774.0 ± 6290.0^a nIU/mL
Fasting blood glucose (0.5 mg/kg s.c. once every three days, Day 0 (before administration, baseline), Mean ± SD): 22.99 ± 1.35 mmol/L
Fasting blood glucose (0.5 mg/kg s.c. once every three days, Day 7, Mean ± SD): 15.54 ± 1.49^c mmol/L
Fasting blood glucose (0.5 mg/kg s.c. once every three days, Day 13, Mean ± SD): 16.79 ± 1.20^c mmol/L
Fasting blood glucose (0.5 mg/kg s.c. once every three days, Day 19, Mean ± SD): 13.26 ± 1.91^c mmol/L
Fasting blood glucose (0.5 mg/kg s.c. once every three days, Day 25, Mean ± SD): 11.85 ± 1.74^c mmol/L
Fasting blood glucose (0.5 mg/kg s.c. once every three days, Day 31, Mean ± SD): 16.41 ± 1.68^c mmol/L
non-fasting blood glucose after the first administration (BG128 dose groups 0.05, 0.15, 0.5 mg/kg s.c., 0-72 h): decreased rapidly within 24 h after the first administration
body weight during the first administration (Tirzepatide 0.15 mg/kg, BG128 0.05, 0.15, 0.5 mg/kg s.c., FIG. 8 and 9): positively correlated with the administration dose
food intake after the first administration vs db/db-ND group (Tirzepatide 0.15 mg/kg, BG128 0.05, 0.15, 0.5 mg/kg s.c., FIG. 10): positively correlated with the administration dose
animal body weight loss rate compared with Tirzepatide (equal dose (0.15 mg/kg s.c.), FIG. 8 and 9): better than that of Tirzepatide administration group
decrease in food intake compared with Tirzepatide (equal dose (0.15 mg/kg s.c.), FIG. 10): significantly greater than that of the positive control group Tirzepatide
non-fasting blood glucose after the first administration (high-dose group 0.5 mg/kg s.c., 24 h-72 h after administration): maintained in a relatively low range
